# Molecular target: human TYK2 (JH2domain-pseudokinase) (Homo sapiens (Human), UniProt P29597)
# Test: TYK2 JH2 Domain Binding Assay (KINOMEscan, DiscoveRx)
# Settings: 11-point dilution, duplicate
# In short: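 Kd from duplicate 11-point 3-fold dilutions starting at 30,000 nM, fitted by Hill equation with slope fixed at −1. Compounds (final 0.9% DMSO) displace DNA-tagged HEK293-expressed TYK2 JH2 fusion (<0.1 nM) from ligand-coated beads over 1 h at room temperature; eluted kinase read by qPCR.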
# Chain of human TYK2 (JH2domain-pseudokinase) (P29597 556-888): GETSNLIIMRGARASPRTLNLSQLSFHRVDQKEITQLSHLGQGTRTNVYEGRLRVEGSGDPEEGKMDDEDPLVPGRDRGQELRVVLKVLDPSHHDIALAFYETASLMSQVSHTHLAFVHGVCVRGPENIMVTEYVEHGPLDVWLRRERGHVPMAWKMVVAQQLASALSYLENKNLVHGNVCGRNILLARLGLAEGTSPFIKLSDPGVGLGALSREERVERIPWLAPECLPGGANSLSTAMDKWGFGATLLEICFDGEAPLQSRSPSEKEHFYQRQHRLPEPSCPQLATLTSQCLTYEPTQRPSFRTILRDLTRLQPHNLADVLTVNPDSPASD
row,Kd,SMILES
1,0.1 to 0.5 nM,Cc1nc2c(Nc3ccc(-c4ncc(C)n4C)cc3S(C)(=O)=O)cc(Nc3cccc(C#N)n3)nc2[nH]1 [I-352]
2,< 0.1 nM,"Cc1cc(-c2ccc(Nc3cc(NC(=O)C4CC4)nc4[nH]c(C(F)F)nc34)c(S(C)(=O)=O)c2)nn1C [I-216, N-(2-(difluoromethyl)-7-((4-(1,5-dimethyl-1H-pyrazol-3-yl)-2-(methylsulfonyl)phenyl)amino)-3H-imidazo[4,5-b]pyridin-5-yl)cyclopropanecarboxamide]"
3,0.1 to 0.5 nM,"Cc1nc2c(Nc3ccc([C@@H]4CCCCO4)cc3S(C)(=O)=O)cc(NC(=O)[C@H]3CC3(F)F)nc2[nH]1 [I-323, 2,2-difluoro-N-(2-methyl-7-((2-(methylsulfonyl)-4-((S)-tetrahydro-2H-pyran-2-yl)phenyl)amino)-3H-imidazo[4,5-b]pyridin-5-yl)cyclopropane-1-carboxamide]"
4,1 to 10 nM,"Cc1nc2c(Nc3ccc(-c4nn(C)cc4C)cc3S(C)(=O)=O)cc(NC(=O)[C@H]3CC3(C)C)nc2[nH]1 [I-479, (S)—N-(7-((4-(1,4-dimethyl-1H-pyrazol-3-yl)-2-(methylsulfonyl)phenyl)amino)-2-methyl-3H-imidazo[4,5-b]pyridin-5-yl)-2,2-dimethylcyclopropane-1-carboxamide]"
5,0.1 to 0.5 nM,"CS(=O)(=O)c1cc([C@H]2CCOC2)ccc1Nc1cc(NC(=O)C2CC2)nc2[nH]c(C(F)F)nc12 [I-453, (R)—N-(2-(difluoromethyl)-7-((2-(methylsulfonyl)-4-(tetrahydrofuran-3-yl)phenyl)amino)-3H-imidazo[4,5-b]pyridin-5-yl)cyclopropanecarboxamide]"
6,0.5 to 1 nM,CS(=O)(=O)c1ccccc1Nc1cc(Nc2cccc(C(F)(F)F)n2)nc2[nH]c(C(F)F)nc12 [I-599]
7,0.1 to 0.5 nM,"Cc1nc2c(Nc3ccc(C4CC4)cc3S(C)(=O)=O)cc(Nc3cc4n(n3)CCCCC4)nc2[nH]1 [I-410, N7-(4-cyclopropyl-2-(methylsulfonyl)phenyl)-2-methyl-N5-(5,6,7,8-tetrahydro-4H-pyrazolo[1,5-a]azepin-2-yl)-3H-imidazo[4,5-b]pyridine-5,7-diamine]"
8,0.1 to 0.5 nM,"CN(c1cc(-c2ccn(C)n2)ccc1Nc1cc(NC(=O)C2CC2)nc2[nH]c(C(F)F)nc12)S(C)(=O)=O [I-171, N-(2-(difluoromethyl)-7-((4-(1-methyl-1H-pyrazol-3-yl)-2-(N-methylmethylsulfonamido)phenyl)amino)-3H-imidazo[4,5-b]pyridin-5-yl)cyclopropaneCarboxamide]"
9,< 0.1 nM,"CS(=O)(=O)c1cc([C@@H]2CCCO2)ccc1Nc1cc(NC(=O)C2CC2)nc2[nH]c(C(F)F)nc12 [I-424, (S)—N-(2-(difluoromethyl)-7-((2-(methylsulfonyl)-4-(tetrahydrofuran-2-yl)phenyl)amino)-3H-imidazo[4,5-b]pyridin-5-yl)cyclopropanecarboxamide]"
10,1 to 10 nM,"CS(=O)(=O)c1cc([C@@H]2CCCOC2)ccc1Nc1cc(NC(=O)C2CC2(F)F)nc2[nH]c(C(F)F)nc12 (stereo partly drawn) [I-359, N-(2-(difluoromethyl)-7-((2-(methylsulfonyl)-4-((S)-tetrahydro-2H-pyran-3-yl)phenyl)amino)-3H-imidazo[4,5-b]pyridin-5-yl)-2,2-difluorocyclopropane-1-carboxamide]"
11,0.1 to 0.5 nM,"Cc1nc2c(Nc3ccc(C4CCCOC4)cc3S(C)(=O)=O)cc(NC(=O)C3CC3)nc2[nH]1 (stereo not drawn) [I-390, N-(2-methyl-7-((2-(methylsulfonyl)-4-(tetrahydro-2H-pyran-3-yl)phenyl)amino)-3H-imidazo[4,5-b]pyridin-5-yl)cyclopropanecarboxamide]"
12,0.1 to 0.5 nM,"CN(c1cc(-c2cn(C)cn2)ccc1Nc1cc(NC(=O)C2CC2)nc2[nH]c(C(F)F)nc12)S(C)(=O)=O [I-64, N-(2-(difluoromethyl)-7-((4-(1-methyl-1H-imidazol-4-yl)-2-(N-methylmethylsulfonamido)phenyl)amino)-3H-imidazo[4,5-b]pyridin-5-yl)cyclopropanecarboxamide]"
13,0.1 to 0.5 nM,"Cc1cnn(-c2ccc(Nc3cc(NC(=O)C4CC4)nc4[nH]c(C(F)F)nc34)c(N(C)S(C)(=O)=O)c2)c1 [I-135, N-(2-(difluoromethyl)-7-((4-(4-methyl-1H-pyrazol-1-yl)-2-(N-methylmethylsulfonamido)phenyl)amino)-3-imidazo[4,5-b]pyridin-5-yl)cyclopropanecarboxamide]"
14,1 to 10 nM,"COc1cc(C(=O)N2CCCC2)ccc1Nc1cc(NC(=O)C2CC2)nc2[nH]c(C(F)F)nc12 [I-35, N-(2-(difluoromethyl)-7-((2-methoxy-4-(pyrrolidine-1-carbonyl)phenyl)amino)-3H-imidazo[4,5-b]pyridin-5-yl)cyclopropanecarboxamide]"
15,0.1 to 0.5 nM,CS(=O)(=O)c1ccccc1Nc1cc(NC(=O)C2CC2)nc2[nH]c(C(F)F)nc12 [I-159]
16,0.1 to 0.5 nM,"Cc1nc2c(Nc3ccc(-c4cc(C)c(C)o4)cc3S(C)(=O)=O)cc(NC(=O)C3CC3)nc2[nH]1 [I-421, N-(7-((4-(4,5-dimethylfuran-2-yl)-2-(methylsulfonyl)phenyl)amino)-2-methyl-3H-imidazo[4,5-b]pyridin-5-yl)cyclopropanecarboxamide]"
17,0.1 to 0.5 nM,"CS(=O)(=O)c1cc([C@@H]2CCCCO2)ccc1Nc1cc(NC(=O)C2CC2)nc2[nH]c(C(F)F)nc12 [I-247, (S)—N-(2-(difluoromethyl)-7-((2-(methylsulfonyl)-4-(tetrahydro-2H-pyran-2-yl)phenyl)amino)-3H-imidazo[4,5-b]pyridin-5-yl)cyclopropanecarboxamide]"
18,1 to 10 nM,"COc1c(Nc2cc(Nc3cc(C(F)(F)F)n(C)n3)nc3[nH]c(C(F)F)nc23)cccc1-c1ncn(C)n1 [I-206, 2-(difluoromethyl)-N7-(2-methoxy-3-(1-methyl-1H-1,2,4-triazol-3-yl)phenyl)-N5-(1-methyl-5-(trifluoromethyl)-1H-pyrazol-3-yl)-3H-imidazo[4,5-b]pyridine-5,7-diamine]"
19,1 to 10 nM,"COc1c(Nc2cc(Nc3cccc(C#N)n3)nc3[nH]c(C)nc23)cccc1-c1nccs1 [I-573, 6-((7-((2-methoxy-3-(thiazol-2-yl)phenyl)amino)-2-methyl-3H-imidazo[4,5-b]pyridin-5-yl)amino)picolinonitrile]"
20,0.5 to 1 nM,"Cn1ccc(-c2ccc(Nc3cc(NC(=O)C4CC4(F)F)nc4[nH]c(C(F)F)nc34)c(S(C)(=O)=O)c2)n1 (stereo not drawn) [I-386, N-(2-(difluoromethyl)-7-((4-(1-methyl-1H-pyrazol-3-yl)-2-(methylsulfonyl)phenyl)amino)-3H-imidazo[4,5-b]pyridin-5-yl)-2,2-difluorocyclopropane-1-carboxamide]"
21,1 to 10 nM,"Cc1nc2c(Nc3ccc([C@H]4CCCO4)cc3S(C)(=O)=O)cc(NC(=O)[C@H]3CC3(F)F)nc2[nH]1 [I-423, (R)-2,2-difluoro-N-(2-methyl-7-((2-(methylsulfonyl)-4-((R)-tetrahydrofuran-2-yl)phenyl)amino)-3H-imidazo[4,5-b]pyridin-5-yl)cyclopropane-1-carboxamide]"
22,1 to 10 nM,COc1nc2c(Nc3cccc(-c4ncn(C)n4)c3OC)cc(NC(=O)C3CC3)nc2[nH]1 [I-11]
23,0.5 to 1 nM,"CS(=O)(=O)c1cc(C2CCOC2)ccc1Nc1cc(NC(=O)C2CC2)nc2[nH]c(C(F)F)nc12 (stereo not drawn) [I-389, N-(2-(difluoromethyl)-7-((2-(methylsulfonyl)-4-(tetrahydrofuran-3-yl)phenyl)amino)-3H-imidazo[4,5-b]pyridin-5-yl)cyclopropanecarboxamide]"

row,SMILES,Kd
1,"CS(=O)(=O)c1cc(C2CCC(F)(F)CO2)ccc1Nc1cc(NC(=O)C2CC2)nc2[nH]c(C(F)F)nc12 (stereo not drawn) [I-571, N-(2-(difluoromethyl)-7-((4-(5,5-difluorotetrahydro-2H-pyran-2-yl)-2-(methylsulfonyl)phenyl)amino)-3H-imidazo[4,5-b]pyridin-5-yl)cyclopropanecarboxamide]",0.1 to 0.5 nM
2,"CS(=O)(=O)c1cc([C@@H]2CCCCO2)ccc1Nc1cc(NC(=O)C2CC2(F)F)nc2[nH]c(C(F)F)nc12 (stereo partly drawn) [I-325, N-(2-(difluoromethyl)-7-((2-(methylsulfonyl)-4-((S)-tetrahydro-2H-pyran-2-yl)phenyl)amino)-3H-imidazo[4,5-b]pyridin-5-yl)-2,2-difluorocyclopropane-1-carboxamide]",0.5 to 1 nM
3,"Cc1cc(Nc2cc(Nc3ccc(-c4nc(C)sc4C)cc3S(C)(=O)=O)c3nc(C)[nH]c3n2)nc(C)n1 [I-579, N5-(2,6-dimethylpyrimidin-4-yl)-N7-(4-(2,5-dimethylthiazol-4-yl)-2-(methylsulfonyl)phenyl)-2-methyl-3H-imidazo[4,5-b]pyridine-5,7-diamine]",< 0.1 nM
4,"COc1c(Nc2cc(NC(=O)C3CC3)nc3[nH]c(C(F)F)nc23)cccc1-c1c(C)nnn1C [I-146, N-(2-(difluoromethyl)-7-((3-(1,4-dimethyl-1H-1,2,3-triazol-5-yl)-2-methoxyphenyl)amino)-3H-imidazo[4,5-b]pyridin-5-yl)cyclopropanecarboxamide]",1 to 10 nM
5,"COc1c(Nc2cc(NC(=O)C3CC3)nc3[nH]c(C)nc23)cccc1-n1ncnc1C [I-162, N-(7-((2-methoxy-3-(5-methyl-1H-1,2,4-triazol-1-yl)phenyl)amino)-2-methyl-3H-imidazo[4,5-b]pyridin-5-yl)cyclopropanecarboxamide]",> 10 nM
6,"CS(=O)(=O)c1cc([C@H]2CCCCO2)ccc1Nc1cc(NC(=O)[C@@H]2CC2(F)F)nc2[nH]c(C(F)F)nc12 [I-281, (S)—N-(2-(difluoromethyl)-7-((2-(methylsulfonyl)-4-((R)-tetrahydro-2H-pyran-2-yl)phenyl)amino)-3H-imidazo[4,5-b]pyridin-5-yl)-2,2-difluorocyclopropane-1-carboxamide]",1 to 10 nM
7,"Cc1csc(-c2ccc(Nc3cc(NC(=O)C4CC4)nc4[nH]c(C)nc34)c(S(C)(=O)=O)c2)n1 [I-289, N-(2-methyl-7-((2-(methylsulfonyl)-4-(4-methylthiazol-2-yl)phenyl)amino)-3H-imidazo[4,5-b]pyridin-5-yl)cyclopropanecarboxamide]",0.1 to 0.5 nM

# Reference: patent US10647713B2 (Nimbus Lakshmi, Inc., priority 2016, dated 2020)
